Results as given in patent US20250366467A1, “METHODS FOR FLUID RESUSCITATION OF AN ORGAN DONOR” (VIRGINIA COMMONWEALTH UNIVERSITY, priority 2022, published 2025).

System: brain dead adult beagle dogs
Settings: dog, in vivo
Protocol: Care and Use Committee. Adult beagle dogs (8-10 kg) of either sex (n=11) were initially anesthetized with propofol (10 mg/kg, intravenous or IV). After intubation, anesthesia was maintained with isoflurane at 1-2% on mechanical ventilation with FiO2 at 30%, ventilation rate of 12, which was adjusted as necessary to achieve a PaCO2 goal of 38-42 mmHg. A circulating water-warming pad was used to maintain normothermia throughout the experiment. The femoral artery was cannulated for arterial blood sampling and for measurement of arterial blood pressure and heart rate. The external jugular vein was also accessed and cannulated for administration of fluids and necessary medications.
Explosive brain death was induced in anesthetized adult Beagle dogs by inflating a balloon catheter (16 Fr. Foley) that was placed under the skull from a trephination burr hole. The balloon was inflated from 0-8 ml volume over about 5 minutes. which ultimately causes the brain stem to herniate through the foramen at the base of the skull. This causes rapid brain death that is characterized by the occurrence of a Cushing reflex, a negative apnea reflex, and fixed and dilated pupils. This methodology has previously been described by Mangino, et al.
The animals were assigned to either the control group (n=5) or the PEG-20k group (n=6) within the first hour. Both groups were treated in a standard fashion. […]

With polyethylene glycol-20k [PEG-20k] as the substance, how does the Hb level trend read?
The Hb level trend was “trended lower”.
